Test results taken from the NIST ThermoML archive (doi:10.1016/j.jct.2005.03.019).
“And” between values parts separate entries of the source, which are not always exact repeats. Equal values may be shown once. Numbers after ± are expanded uncertainties.

Assays:
[1] = 101 kPa, Liquid, Vibrating tube method
[2] = refractive index (Na D-line) (dimensionless); conditions: 101.33 kPa, Liquid, Standard Abbe refractometry
[3] = xn = mol fraction of the nth substance listed; conditions: 101 kPa, Liquid, Vibrating tube method

CC1COC(=O)O1 (stereo not drawn) [4-methyl-1,3-dioxolan-2-one]
Conditions	mass density, 293.15 K [kg/m3]	mass density, 303.15 K [kg/m3]	mass density, 313.15 K	mass density, 323.15 K [kg/m3]	mass density, 333.15 K [kg/m3]	mass density, 343.15 K [kg/m3]	mass density, 353.15 K [kg/m3]	refractive index, 293.15 K
[1]	1200.3 ± 0.1	1180.6 ± 0.1	1161.3 ± 0.1 kg/m3 and 1161.2 ± 0.1 kg/m3	1142.4 ± 0.1	1124 ± 0.1	1106 ± 0.1	1088.4 ± 0.1	–
[2]	–	–	–	–	–	–	–	1.42095 ± 0.0004

CC1COC(=O)O1 (stereo not drawn) [4-methyl-1,3-dioxolan-2-one] + C=Cc1ccccc1
[3], x2 = 0
Conditions	mass density [kg/m3]
293.15 K	1200.3 ± 0.1
303.15 K	1180.6 ± 0.1
313.15 K	1161.2 ± 0.1
333.15 K	1124 ± 0.1
343.15 K	1106 ± 0.1
353.15 K	1088.4 ± 0.1

c1ccccc1 [benzene]
Conditions	mass density, 293.15 K [kg/m3]	mass density, 303.15 K [kg/m3]	mass density, 313.15 K [kg/m3]	mass density, 323.15 K [kg/m3]	mass density, 333.15 K [kg/m3]	mass density, 343.15 K [kg/m3]	mass density, 353.15 K [kg/m3]	refractive index, 298.15 K
[1]	877.8 ± 0.1	868 ± 0.1	857.9 ± 0.1	847.4 ± 0.1	836.6 ± 0.1	825.4 ± 0.1	813.9 ± 0.1	–
[2]	–	–	–	–	–	–	–	1.5009 ± 0.0004

c1ccccc1 [benzene] + CC1COC(=O)O1
[3], x1 = 1
Conditions	mass density [kg/m3]
293.15 K	877.8 ± 0.1
303.15 K	868 ± 0.1
313.15 K	857.9 ± 0.1
323.15 K	847.4 ± 0.1
333.15 K	836.6 ± 0.1
343.15 K	825.4 ± 0.1
353.15 K	813.9 ± 0.1

CCc1ccccc1 [ethylbenzene]
Conditions	mass density, 293.15 K [kg/m3]	mass density, 303.15 K [kg/m3]	mass density, 313.15 K [kg/m3]	mass density, 323.15 K [kg/m3]	mass density, 333.15 K [kg/m3]	refractive index, 298.15 K
[1]	867.8 ± 0.2	858.6 ± 0.2	851.8 ± 0.2	847.6 ± 0.2	845.8 ± 0.2	–
[2]	–	–	–	–	–	1.4962 ± 0.0005

CCc1ccccc1 [ethylbenzene] + CC1COC(=O)O1
[3], x1 = 1
Conditions	mass density [kg/m3]
293.15 K	867.8 ± 0.2
303.15 K	858.6 ± 0.2
313.15 K	851.8 ± 0.2
323.15 K	847.6 ± 0.2
333.15 K	845.8 ± 0.2

C=Cc1ccccc1 [styrene]
Conditions	mass density, 293.15 K [kg/m3]	mass density, 303.15 K [kg/m3]	mass density, 313.15 K [kg/m3]	mass density, 323.15 K [kg/m3]	mass density, 333.15 K [kg/m3]	mass density, 343.15 K [kg/m3]	mass density, 353.15 K [kg/m3]	refractive index, 298.15 K
[1]	906 ± 4.5	896.4 ± 4.4	886.9 ± 4.3	877.3 ± 4.2	867.8 ± 4.1	858.2 ± 4	848.6 ± 4	–
[2]	–	–	–	–	–	–	–	1.546 ± 0.0011

Cc1ccccc1 [toluene]
Conditions	mass density, 293.15 K [kg/m3]	mass density, 303.15 K [kg/m3]	mass density, 313.15 K [kg/m3]	mass density, 323.15 K [kg/m3]	mass density, 333.15 K [kg/m3]	mass density, 343.15 K [kg/m3]	mass density, 353.15 K [kg/m3]	refractive index, 298.15 K
[1]	866.8 ± 0.1	857.5 ± 0.1	848.2 ± 0.1	838.9 ± 0.1	829.5 ± 0.1	820 ± 0.1	810.5 ± 0.1	–
[2]	–	–	–	–	–	–	–	1.4965 ± 0.0004

Cc1ccccc1 [toluene] + CC1COC(=O)O1
[3], x1 = 1
Conditions	mass density [kg/m3]
293.15 K	866.8 ± 0.1
303.15 K	857.5 ± 0.1
313.15 K	848.2 ± 0.1
323.15 K	838.9 ± 0.1
333.15 K	829.5 ± 0.1
343.15 K	820 ± 0.1
353.15 K	810.5 ± 0.1
